# According to patent US20250205268A1, “TREATMENT OF VIRUSES WITH ANTIVIRAL NUCLEOSIDES” (priority 2021, published 2025):
# Several values for one entry are separate records, joined by “and”; a condition that tells them apart may be missing. Identical values can stand only once. Like-named read-outs stand apart in the source and are kept apart here.
# Tests used:
# [1] = assay type: in vivo; conditions: nonclinical studies
# SARS-CoV-2 RNA [2] = assay: Phase 2a trial: RT-PCR for SARS-CoV-2 RNA in nasopharyngeal swabs (Example 2); assay type: in vivo
# [3] = test system: infectious SARS-CoV-2 virus; assay type: in vivo
# SARS-CoV-2 RNA [4] = assay type: in vivo; conditions: for SARS-CoV-2 RNA titer, mean / SARS-CoV-2 RNA titer, mean change from baseline: interim
# [5] = baseline RNA titer >10^6 copies/ml, Day 3
# [6] = baseline RNA titer >10^6 copies/ml, Day 10
# [7] = baseline RNA titer >10^6 copies/ml, Day 15
# [8] = baseline RNA titer >10^6 copies/ml, Day 29
# [9] = baseline RNA titer >10^6 copies/ml, EOT (Day 5)
# [10] = baseline RNA titer ≤10^6 copies/ml, Day 3
# [11] = baseline RNA titer ≤10^6 copies/ml, Day 10
# [12] = baseline RNA titer ≤10^6 copies/ml, Day 15
# [13] = baseline RNA titer ≤10^6 copies/ml, Day 29
smiles,measurement,setting,value
"CC(C)C(=O)OC[C@H]1O[C@@H](n2ccc(NO)nc2=O)[C@H](O)[C@@H]1O [Compound A, {(2R,3S,4R,5R)-3,4-dihydroxy-5-[4-(hydroxyimino)-2-oxo-3,4-dihydropyrimidin-1 (2H)-yl]oxolan-2-yl}methyl 2-methylpropanoate]",pancreatic toxicity (pathology changes in the pancreas),[1],No test-article related pathology changes in the pancreas
same,"Change from baseline in SARS-CoV-2 viral load, least squares mean","SARS-CoV-2 RNA [2]; 200 mg, Day 3",−0.783 log10 copies/ml
same,Difference in least squares mean viral load change vs placebo,"SARS-CoV-2 RNA [2]; 200 mg, Day 3",0.064 log10 copies/ml
same,"Change from baseline in SARS-CoV-2 viral load, least squares mean","SARS-CoV-2 RNA [2]; 200 mg, Day 5",−1.471 log10 copies/ml
same,Difference in least squares mean viral load change vs placebo,"SARS-CoV-2 RNA [2]; 200 mg, Day 5",−0.150 log10 copies/ml
same,"Change from baseline in SARS-CoV-2 viral load, least squares mean","SARS-CoV-2 RNA [2]; 200 mg, Day 7",−2.028 log10 copies/ml
same,Difference in least squares mean viral load change vs placebo,"SARS-CoV-2 RNA [2]; 200 mg, Day 7",−0.076 log10 copies/ml
same,"Change from baseline in SARS-CoV-2 viral load, least squares mean","SARS-CoV-2 RNA [2]; 200 mg, Day 14",−2.884 log10 copies/ml
same,Difference in least squares mean viral load change vs placebo,"SARS-CoV-2 RNA [2]; 200 mg, Day 14",−0.019 log10 copies/ml
same,"Change from baseline in SARS-CoV-2 viral load, least squares mean","SARS-CoV-2 RNA [2]; 400 mg, Day 3",−0.941 log10 copies/ml
same,Difference in least squares mean viral load change vs placebo,"SARS-CoV-2 RNA [2]; 400 mg, Day 3",−0.094 log10 copies/ml
same,"Change from baseline in SARS-CoV-2 viral load, least squares mean","SARS-CoV-2 RNA [2]; 400 mg, Day 5",−1.754 log10 copies/ml
same,Difference in least squares mean viral load change vs placebo,"SARS-CoV-2 RNA [2]; 400 mg, Day 5",−0.434 log10 copies/ml
same,"Change from baseline in SARS-CoV-2 viral load, least squares mean","SARS-CoV-2 RNA [2]; 400 mg, Day 7",−2.263 log10 copies/ml
same,Difference in least squares mean viral load change vs placebo,"SARS-CoV-2 RNA [2]; 400 mg, Day 7",−0.311 log10 copies/ml
same,"Change from baseline in SARS-CoV-2 viral load, least squares mean","SARS-CoV-2 RNA [2]; 400 mg, Day 14",−2.840 log10 copies/ml
same,Difference in least squares mean viral load change vs placebo,"SARS-CoV-2 RNA [2]; 400 mg, Day 14",0.026 log10 copies/ml
same,Median time to response (SARS-CoV-2 viral RNA negativity),SARS-CoV-2 RNA [2]; 800 mg twice daily 5 days,14 days and 14.0 days
same,"Change from baseline in SARS-CoV-2 viral load, least squares mean","SARS-CoV-2 RNA [2]; 800 mg, Day 3",−1.050 log10 copies/ml
same,Difference in least squares mean viral load change vs placebo,"SARS-CoV-2 RNA [2]; 800 mg, Day 3",−0.203 log10 copies/ml
same,"Change from baseline in SARS-CoV-2 viral load, least squares mean","SARS-CoV-2 RNA [2]; 800 mg, Day 5",−1.867 log10 copies/ml
same,Difference in least squares mean viral load change vs placebo,"SARS-CoV-2 RNA [2]; 800 mg, Day 5",−0.547 log10 copies/ml
same,"Change from baseline in SARS-CoV-2 viral load, least squares mean","SARS-CoV-2 RNA [2]; 800 mg, Day 7",−2.485 log10 copies/ml
same,Difference in least squares mean viral load change vs placebo,"SARS-CoV-2 RNA [2]; 800 mg, Day 7",−0.534 log10 copies/ml
same,"Change from baseline in SARS-CoV-2 viral load, least squares mean","SARS-CoV-2 RNA [2]; 800 mg, Day 14",−3.040 log10 copies/ml
same,Difference in least squares mean viral load change vs placebo,"SARS-CoV-2 RNA [2]; 800 mg, Day 14",−0.175 log10 copies/ml
same,Median time to clearance of viral RNA,"SARS-CoV-2 RNA [2]; 800 mg, participants seronegative at baseline (sensitivity analysis)",14 days
same,Percentage of participants positive for infectious SARS-CoV-2 virus,"[3]; 200 mg twice daily 5 days, Day 1",(50.0) %
same,Percentage of participants positive for infectious SARS-CoV-2 virus,"[3]; 200 mg twice daily 5 days, Day 3",(18.2) %
same,Percentage of participants positive for infectious SARS-CoV-2 virus,"[3]; 200 mg twice daily 5 days, Day 5",(4.5) %
same,Percentage of participants positive for infectious SARS-CoV-2 virus,"[3]; 400 mg twice daily 5 days, Day 1",(41.9) %
same,Percentage of participants positive for infectious SARS-CoV-2 virus,"[3]; 400 mg twice daily 5 days, Day 3",(11.6) %
same,Percentage of participants positive for infectious SARS-CoV-2 virus,"[3]; 800 mg twice daily 5 days, Day 1",(38.5) %
same,reductions in viral load from baseline versus placebo,SARS-CoV-2 RNA [4]; Part 2 interim analysis,significantly greater reductions in viral load from baseline at Days 3 and 5 than placebo
same,reductions from baseline in mean viral load versus placebo,"SARS-CoV-2 RNA [4]; final all-randomized analysis, days 3, 5 (end-of-treatment visit), and 10",greater reductions from baseline in mean viral load than placebo
same,"SARS-CoV-2 RNA titer, mean","SARS-CoV-2 RNA [4]; MITT, Baseline",6.85 log^10 copies/ml
same,"SARS-CoV-2 RNA titer, mean","SARS-CoV-2 RNA [4]; MITT, Day 3",5.82 log^10 copies/ml
same,"SARS-CoV-2 RNA titer, mean change from baseline","SARS-CoV-2 RNA [4]; MITT, Day 3",−1.04 log^10 copies/ml
same,"SARS-CoV-2 RNA titer, mean","SARS-CoV-2 RNA [4]; MITT, Day 10",3.70 log^10 copies/ml
same,"SARS-CoV-2 RNA titer, mean change from baseline","SARS-CoV-2 RNA [4]; MITT, Day 10",−3.18 log^10 copies/ml
same,"SARS-CoV-2 RNA titer, mean","SARS-CoV-2 RNA [4]; MITT, Day 15",3.20 log^10 copies/ml
same,"SARS-CoV-2 RNA titer, mean change from baseline","SARS-CoV-2 RNA [4]; MITT, Day 15",−3.69 log^10 copies/ml
same,"SARS-CoV-2 RNA titer, mean","SARS-CoV-2 RNA [4]; MITT, Day 29",2.90 log^10 copies/ml
same,"SARS-CoV-2 RNA titer, mean change from baseline","SARS-CoV-2 RNA [4]; MITT, Day 29",−4.08 log^10 copies/ml
same,"SARS-CoV-2 RNA titer, mean","SARS-CoV-2 RNA [4]; MITT, EOT (Day 5)",4.80 log^10 copies/ml
same,"SARS-CoV-2 RNA titer, mean change from baseline","SARS-CoV-2 RNA [4]; MITT, EOT (Day 5)",−2.09 log^10 copies/ml
same,"SARS-CoV-2 RNA titer, mean","SARS-CoV-2 RNA [4]; baseline RNA titer >10^6 copies/ml, Baseline",7.71 log^10 copies/ml
same,"SARS-CoV-2 RNA titer, mean",SARS-CoV-2 RNA [4]; [5],6.56 log^10 copies/ml
same,"SARS-CoV-2 RNA titer, mean change from baseline",SARS-CoV-2 RNA [4]; [5],−1.17 log^10 copies/ml
same,"SARS-CoV-2 RNA titer, mean",SARS-CoV-2 RNA [4]; [6],3.94 log^10 copies/ml
same,"SARS-CoV-2 RNA titer, mean change from baseline",SARS-CoV-2 RNA [4]; [6],−3.79 log^10 copies/ml
same,"SARS-CoV-2 RNA titer, mean",SARS-CoV-2 RNA [4]; [7],3.26 log^10 copies/ml
same,"SARS-CoV-2 RNA titer, mean change from baseline",SARS-CoV-2 RNA [4]; [7],−4.47 log^10 copies/ml
same,"SARS-CoV-2 RNA titer, mean",SARS-CoV-2 RNA [4]; [8],2.93 log^10 copies/ml
same,"SARS-CoV-2 RNA titer, mean change from baseline",SARS-CoV-2 RNA [4]; [8],−4.87 log^10 copies/ml
same,"SARS-CoV-2 RNA titer, mean",SARS-CoV-2 RNA [4]; [9],5.25 log^10 copies/ml
same,"SARS-CoV-2 RNA titer, mean change from baseline",SARS-CoV-2 RNA [4]; [9],−2.49 log^10 copies/ml
same,"SARS-CoV-2 RNA titer, mean","SARS-CoV-2 RNA [4]; baseline RNA titer ≤10^6 copies/ml, Baseline",4.58 log^10 copies/ml
same,"SARS-CoV-2 RNA titer, mean",SARS-CoV-2 RNA [4]; [10],3.88 log^10 copies/ml
same,"SARS-CoV-2 RNA titer, mean change from baseline",SARS-CoV-2 RNA [4]; [10],−0.67 log^10 copies/ml
same,"SARS-CoV-2 RNA titer, mean",SARS-CoV-2 RNA [4]; [11],3.05 log^10 copies/ml
same,"SARS-CoV-2 RNA titer, mean change from baseline",SARS-CoV-2 RNA [4]; [11],−1.49 log^10 copies/ml
same,"SARS-CoV-2 RNA titer, mean",SARS-CoV-2 RNA [4]; [12],3.01 log^10 copies/ml
same,"SARS-CoV-2 RNA titer, mean change from baseline",SARS-CoV-2 RNA [4]; [12],−1.51 log^10 copies/ml
same,"SARS-CoV-2 RNA titer, mean",SARS-CoV-2 RNA [4]; [13],2.81 log^10 copies/ml
same,"SARS-CoV-2 RNA titer, mean change from baseline",SARS-CoV-2 RNA [4]; [13],−1.76 log^10 copies/ml
